Results as given in patent US7932262B2 (Novartis AG, priority 2006, dated 2011).

Experiments:
A2780 cells = assay: Cell Proliferation Assay (Cell Titer Glo), A2780; type: cell-based; details: Homo sapiens; cell proliferation, A2780 cells; read-out: CPEC50 A2780
How it was run: (§1)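 Cells seeded at 1000/well, allowed to adhere 3-5 h, then exposed to DMSO-dissolved compounds for 3 days at 37° C., 5% CO2. Medium replaced before Cell Titer Glo addition; luminescence read after 10 min.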

PDK1 kinase = molecular target: T1, PDK1 kinase (Homo sapiens, UniProt O15530); assay: PDK1 Kinase Alpha Screen Assay; type: biochemical; details: PDK1 Kinase Alpha Screen Assay; read-out: PDK1 IC50
T1 sequence (O15530 1-556): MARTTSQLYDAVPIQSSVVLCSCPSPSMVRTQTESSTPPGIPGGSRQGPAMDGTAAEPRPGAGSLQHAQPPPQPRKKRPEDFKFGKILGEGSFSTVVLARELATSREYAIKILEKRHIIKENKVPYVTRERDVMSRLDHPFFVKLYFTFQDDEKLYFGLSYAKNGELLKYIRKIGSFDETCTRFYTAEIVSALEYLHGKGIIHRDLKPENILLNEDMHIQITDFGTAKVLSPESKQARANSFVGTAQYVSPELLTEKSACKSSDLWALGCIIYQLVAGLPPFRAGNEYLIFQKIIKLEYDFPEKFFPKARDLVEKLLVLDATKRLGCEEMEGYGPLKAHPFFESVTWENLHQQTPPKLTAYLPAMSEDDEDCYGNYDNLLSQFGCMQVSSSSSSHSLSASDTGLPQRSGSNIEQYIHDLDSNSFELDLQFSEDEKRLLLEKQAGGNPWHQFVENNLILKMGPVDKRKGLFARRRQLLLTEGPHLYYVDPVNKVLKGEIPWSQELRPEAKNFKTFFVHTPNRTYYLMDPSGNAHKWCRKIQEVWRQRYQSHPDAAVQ
How it was run: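 Biotinylated PDK1-4 peptide (50 nM) phosphorylated by PDK1 with 10 uM ATP in pH 7.5 Tris/MgCl2/DTT buffer, 2.5% DMSO, for 3-18 hours. EDTA stop, then AlphaScreen detection with phospho-(Ser/Thr) PKA substrate antibody and protein A/streptavidin beads after overnight room-temperature development.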

PC-3 cells = assay: Cell Proliferation Assay (Cell Titer Glo), PC-3 cell line; type: cell-based; details: Homo sapiens, PC-3, cell proliferation, PC3 cells; read-out: CPEC50 PC3
How it was run: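 PC-3 cells, 1000 cells/well, left to adhere 3-5 h, then exposed for 3 days at 37° C to compounds as 1:3 serial dilutions from 500× DMSO stocks diluted in growth medium. Medium then replaced with fresh medium and viability read by Cell Titer Glo luminescence.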

PC3MM cells = assay: Cell Proliferation Assay (Cell Titer Glo), PC3MM; type: cell-based; details: cell proliferation, PC3MM cells; read-out: CPEC50 PC3MM
How it was run: as §1

| SMILES | EC50 (A2780 cells) [µM] | IC50 (PDK1 kinase) [µM] | EC50 (PC-3 cells) [µM] | EC50 (PC3MM cells) [µM] |
| --- | --- | --- | --- | --- |
| NS(=O)(=O)c1ccc(Nc2ncc3cccc(O[C@@H]4CN5CCC4CC5)c3n2)cc1 [Compound 744, (S)-4-(8-(quinuclidin-3-yloxy)quinazolin-2-ylamino)benzenesulfonamide] | < 5 | < 5 | < 5 | < 5 |
| CN1C2CCC1CC(Oc1cccc3cnc(Nc4ccc(S(N)(=O)=O)cc4)nc13)C2 (stereo not drawn) [Compound 749, 4-(8-(8-methyl-8-azabicyclo[3.2.1]octan-3-yloxy)quinazolin-2-ylamino)benzenesulfonamide] | < 5 | < 5 | < 5 | < 5 |
| CC(C)CN1CCC(Oc2cccc3cnc(Nc4ccc(S(N)(=O)=O)cc4)nc23)CC1 [Compound 816, 4-(8-(1-isobutylpiperidin-4-yloxy)quinazolin-2-ylamino)benzenesulfonamide] | < 5 | < 5 | < 5 | < 5 |
| NS(=O)(=O)c1ccc(Nc2ncc3ccc(-c4ccc(F)nc4)cc3n2)cc1 [Compound 837, 4-(7-(6-fluoropyridin-3-yl)quinazolin-2-ylamino)benzenesulfonamide] | < 5 | < 5 | – | < 5 |
| Cc1ccc(Cl)cc1NC(=O)c1ccc2cnc(Nc3ccc(S(N)(=O)=O)cc3)nc2c1 [Compound 838, N-(5-chloro-2-metlhylphenyl)-2-(4-sulfamoylphenylamino)quinazoline-7-carboxamide] | < 5 | < 5 | – | < 5 |
| Cc1csc(NC(=O)c2ccc3cnc(Nc4ccc(S(N)(=O)=O)cc4)nc3c2)c1C(N)=O [Compound 839, N-(3-carbamoyl-4-methylthiophen-2-yl)-2-(4-sulfamoylphenylamino)quinazoline-7-carboxamide] | < 5 | < 5 | – | < 5 |
| NS(=O)(=O)c1ccc(Nc2ncc3ccc(-c4ccc5c(c4)CCNC5=O)cc3n2)cc1 [Compound 840, 4-(7-(1-oxo-1,2,3,4-tetrahydroisoquinolin-6-yl)quinazolin-2-ylamino)benzenesulfonamide] | 5 to 10 | < 5 | – | < 5 |
| CCN1CC(Oc2cccc3cnc(Nc4ccc(S(N)(=O)=O)cc4)nc23)C1 [Compound 841, 4-(8-(1-ethylazetidin-3-yloxy)quinazolin-2-ylamino)benzenesulfonamide] | < 5 | < 5 | – | < 5 |
| Cc1ccc(C(N)=O)c(NC(=O)c2ccc3cnc(Nc4ccc(S(N)(=O)=O)cc4)nc3c2)c1 [Compound 842, N-(2-carbamoyl-5-methylphenyl)-2-(4-sulfamoylphenylamino)quinazoline-7-carboxamide] | 5 to 10 | < 5 | – | < 5 |
| NS(=O)(=O)c1ccc(Nc2ncc3ccc(-c4cnc(=O)[nH]c4)cc3n2)cc1 [Compound 844, 4-(7-(2-oxo-1,2-dihydropyrimidin-5-yl)quinazolin-2-ylamino)benzenesulfonamide] | 5 to 10 | < 5 | – | < 5 |
| NS(=O)(=O)c1ccc(Nc2ncc3ccc(Br)c(OC4CCNCC4)c3n2)cc1 [Compound 845, 4-(7-bromo-8-(piperidin-4-yloxy)quinazolin-2-ylamino)benzenesulfonamide] | < 5 | < 5 | – | < 5 |
| Cc1nn(C)c(C)c1-c1ccc2cnc(Nc3ccc(S(N)(=O)=O)cc3)nc2c1 [Compound 848, 4-(7-(1,3,5-trimethyl-1H-pyrazol-4-yl)quinazolin-2-ylamino)benzenesulfonamide] | < 5 | < 5 | – | < 5 |

Other lines, results leading:

| EC50 (A2780 cells) [µM] | IC50 (PDK1 kinase) [µM] | EC50 (PC-3 cells) [µM] | EC50 (PC3MM cells) [µM] | SMILES |
| --- | --- | --- | --- | --- |
| < 5 | < 5 | < 5 | < 5 | NS(=O)(=O)c1ccc(Nc2ncc3cccc(OC4CCNCC4)c3n2)cc1 [Compound 718, 4-(8-(piperidin-4-yloxy)quinazolin-2-ylamino)benzenesulfonamide] |
| < 5 | < 5 | < 5 | < 5 | CC(C)N1CCC(Oc2cccc3cnc(Nc4ccc(S(N)(=O)=O)cc4)nc23)CC1 [Compound 725, 4-(8-(1-isopropylpiperidin-4-yloxy)quinazolin-2-ylamino)benzenesulfonamide] |
| < 5 | < 5 | < 5 | < 5 | NS(=O)(=O)c1ccc(Nc2ncc3ccc(OC4CCNCC4)cc3n2)cc1 [Compound 750, 4-(7-(piperidin-4-yloxy)quinazolin-2-ylamino)benzenesulfonamide] |
| < 5 | < 5 | < 5 | < 5 | CN1CCC(Oc2ccc3cnc(Nc4ccc(S(N)(=O)=O)cc4)nc3c2)CC1 [Compound 763, 4-(7-(1-methylpiperidin-4-yloxy)quinazolin-2-ylamino)benzenesulfonamide] |
| < 5 | < 5 | < 5 | < 5 | O=S(=O)(c1ccc(Nc2ncc3cccc(OC4CCNCC4)c3n2)cc1)N1CCOCC1 [Compound 771, N-(4-(morpholinosulfonyl)phenyl)-8-(piperidin-4-yloxy)quinazolin-2-amine] |
| < 5 | < 5 | < 5 | < 5 | CC(C)N1CCC(Oc2cccc3cnc(Nc4ccc(S(=O)(=O)N5CCOCC5)cc4)nc23)CC1 [Compound 772, 8-(1-isopropylpiperidin-4-yloxy)-N-(4-(morpholinosulfonyl)-phenyl)quinazolin-2-amine] |
| < 5 | < 5 | < 5 | < 5 | CC(C)NS(=O)(=O)c1ccc(Nc2ncc3cccc(OC4CCNCC4)c3n2)cc1 [Compound 779, N-isopropyl-4-(8-(piperidin-4-yloxy)quinazolin-2-ylamino)benzenesulfonamide] |
| < 5 | < 5 | < 5 | < 5 | COCCNS(=O)(=O)c1ccc(Nc2ncc3cccc(OC4CCNCC4)c3n2)cc1 [Compound 780, N-(2-methoxyethyl)-4-(8-(piperidin-4-yloxy)quinazolin-2-ylamino)benzenesulfonamide] |
| < 5 | < 5 | < 5 | < 5 | O=S(=O)(NC1CC1)c1ccc(Nc2ncc3cccc(OC4CCNCC4)c3n2)cc1 [Compound 781, N-cyclopropyl-4-(8-(piperidin-4-yloxy)quinazolin-2-ylamino)benzenesulfonamide] |
| < 5 | < 5 | < 5 | < 5 | CC(C)N1CCC(Oc2ccc3cnc(Nc4ccc(S(N)(=O)=O)cc4)nc3c2)CC1 [Compound 794, 4-(7-(1-isopropylpiperidin-4-yloxy)quinazolin-2-ylamino)benzenesulfonamide] |
| < 5 | < 5 | < 5 | < 5 | CC(C)N1CCC(c2c(O)ccc3cnc(Nc4ccc(S(N)(=O)=O)cc4)nc23)CC1 [Compound 795, 4-(7-hydroxy-8-(1-isopropylpiperidin-4-yl)quinazolin-2-ylamino)benzenesulfonamide] |
| < 5 | < 5 | < 5 | < 5 | CC(C)NC(=O)c1ccc(Nc2ncc3cccc(OC4CCN(C(C)C)CC4)c3n2)cc1 [Compound 797, N-isopropyl-4-(8-(1-isopropylpiperidin-4-yloxy)quinazolin-2-ylamino)benzamide] |
| < 5 | < 5 | < 5 | < 5 | Cn1cc(-c2ccc3cnc(Nc4ccc(S(N)(=O)=O)cc4)nc3c2)cn1 [Compound 799, 4-(7-(1-methyl-1H-pyrazol-4-yl)quinazolin-2-ylamino)benzenesulfonamide] |
| < 5 | < 5 | < 5 | < 5 | NS(=O)(=O)c1ccc(Nc2ncc3ccc(-c4cccnc4F)cc3n2)cc1 [Compound 800, 4-(7-(2-fluoropyridin-3-yl)quinazolin-2-ylamino)benzenesulfonamide] |
| < 5 | < 5 | < 5 | < 5 | O=S(=O)(NCCN1CCCC1)c1ccc(Nc2ncc3cccc(OC4CCNCC4)c3n2)cc1 [Compound 810, 4-(8-(piperidin-4-yloxy)quinazolin-2-ylamino)-N-(2-(pyrrolidin-1-yl)ethyl)benzenesulfonamide] |
